“And” between values parts separate entries of the source, which are not always exact repeats. Identical values can stand only once. Blank lines part the entries; values can stand above or below the compound they belong to. Ends that are not written are not given here. Peptide text beside a SMILES is read from it.
Columns and labels:
[1] = Intravenous administration of 14C-ISF402: radioactivity in blood and serum; type: in vivo, rat
Protocol: (§1) ^14C-ISF402 (22.7 μCi/mg) was dissolved in water and diluted with unlabelled ISF402 to a concentration of 30 mg/mL for oral and 4.5 mg/mL for intravenous (IV) administration. The day before the experiment 16-18 week female Zucker fa/fa rats (300-400 g) rats were fasted overnight with free access to water before oral administration of ^14C-ISF402 by gavage at 30 mg/kg, 260-263.7 kBq/kg (5.0-5.1 μCi/kg) or IV with 4.5 mg/kg, 103.0-107.3 kBg/kg (1.98-2.06 μCi/kg). After administration of ^14C-ISF402 rats were placed into metabolic cages with free access to food and water.
(§2) Blood samples were collected from the tail vein over the 7 hour time course. Urine was collected at 4 and 12 hours after administration. Whole blood samples (100 μL) were collected and placed into dry ice then stored at −80° C. 50 μL of serum from whole blood was collected into T-MG clotting capiject tubes (Terumo, Elkton, Md.). Sera were separated by centrifuging blood for 90 seconds at 3000×g at room temperature. 100 μL and 50 μL of whole blood and serum, respectively was used for the measurement of radioactivity. The whole blood and serum samples were solubilized with 2 volumes of sample, 2 volumes of 1.4M NaOH and 1 volume of 30 percent hydrogen peroxide. The final volume was made to 1 mL by the addition of distilled water. 4 mL of HiSafe3 Optiphase (PerkinElmer, Boston, Mass.) was added and radioactivity determined in a Wallac Scintillation counter.
(§3) Urine was frozen at −20° C. until analysed for radioactivity. After measuring the total volume of urine, 100 μL of urine and 100 μL ethanol was added to 4 mL scintillant. Samples were left overnight after the addition of scintillant then counted for radioactivity using a Wallac 1409 liquid scintillant counter (PerkinElmer, Boston, Mass.). Radioactivity in all samples was counted several times over the course of 4 weeks until readings were consistent. Radioactivity was expressed as μg equivalent (eq.)/mL. This was calculated from the dpm per mL of sample divided by the specific radioactivity of the peptide administered. The integrity of the radiolabelled peptide in serum and urine samples was determined by reverse phase HPLC as described above.

[2] = Oral administration of 14C-ISF402: radioactivity in blood, serum and urine; type: in vivo, rat
Protocol: as §1, §2, §3

Zinc-insulin hexamers = biological target: T1, Zinc-insulin hexamers (Bos taurus, UniProt P01317); test: Circular dichroism of zinc-insulin hexamers (dispersal); type: biochemical, bovine; conditions: Zn-insulin 1 mg/mL; for CD signal at 275 nm of Zn-insulin upon addition: ISF401 1 μL of 100 mM, EDTA 4 mM
T1 construct: Zinc-insulin hexamers were prepared by dissolving bovine insulin containing 0.6% zinc
Protocol: Zinc-insulin hexamers were prepared by dissolving bovine insulin containing 0.6% zinc in […] then raising the pH to 7.2-7.4 by addition of NaOH. HEPES buffer was added to give a final solution of 1 mg/mL insulin in 25 mM HEPES buffer (pH 7.2). The CD spectrum of insulin or ISF401 was measured from […] at 20° C. on a Jasco J-810 spectropolarimeter equipped with a PFD 423S/L Peltier type temperature controller. 200 μL of sample was placed in a quartz cuvette, with path length of 1 mm, in the spectropolarimeter and the CD spectrum was recorded. Each spectrum represents an average of 3-5 scans performed at 100 nm/min with a band width of 1 nm. The effect of ethylenediamine tetraacetic acid (EDTA) and ISF401 were measured by adding an aliquot of EDTA (4 mM) or an aliquot of ISF401 (100 mM) and measuring the CD spectrum.
To test dispersal of insulin hexamers by ISF401, circular dichroism (CD) was used.
The CD signal at 275 nm was used to measure the association state of insulin in the presence of ISF401 (1 μL of 100 mM), EDTA ([…] of 4 mM) and deionised water (1 μL).

hexameric insulin = biological target: T2, hexameric insulin (Homo sapiens, UniProt P01308); test: Size exclusion chromatography of hexameric insulin with test peptide; type: biochemical
T2 construct: correspond to dimeric insulin (11.8 kDa) and monomeric (5.8 kDa) insulin respectively; purchased Sigma 19278
Protocol: Size exclusion chromatography was used to study the effect of GHTD-amide (ISF401) on hexameric insulin. Recombinant Human Insulin solution (Sigma 19278) was diluted to 2 mg/mL with 10 mM Tris pH 7.4 and dialysed against 10 mM Tris pH 7.4 (to remove HEPES which absorbs strongly at 214 nm and coelutes with GHTD-amide). Insulin stock solution at 1.5 mg/mL was then prepared by addition of phenol to 4 mM, NaCl to 140 mM and ZnCl2 to 100 μM. Prior to size exclusion chromatography stock insulin was mixed either with water or test peptide to give a final concentration 1 mg/mL each of insulin and test peptide when applicable, and 10 mM Tris pH 7.4, 140 mM NaCl and […] ZnCl2 then incubated at room temperature for 1 hour. Samples of insulin or mixtures (800 μL) were then subjected to size exclusion chromatography using a 1×30 cm Superdex 75 HR 10/30 column at a flow rate of 0.1 mL min^−1 with an eluent comprising Tris-buffered isotonic saline (140 mM NaCl, 10 mM Tris/HCl pH 7.4, 60 μM ZnCl2) at a flow rate of 0.1 mL min^−1, UV detection at 214 nm and 276 nm, and collection of 0.5 mL fractions for protein determination. Protein size standards Aprotinin (6 kDa) and Carbonic Anhydrase (29 kDa) run under the same conditions eluted at 18.85 mL and 14.75 mL respectively. The gel matrix, which has a fractionation range of 3,000 to 70,000 Da, and sample volume loaded were chosen to ensure that the two peptides remained in contact within the gel matrix thereby allowing interaction to occur between the two during the separation process. The concentration of insulin was maintained at 1 mg/mL at pH 7.4 in the presence of 2 Zn^2+/hexamer since it has been shown that at this concentration insulin exists predominantly as Zn^2+-dependent hexamers.

female Zucker fa/fa rats = test: Intravenous injection of female Zucker fa/fa rats: blood glucose, serum insulin, C-peptide, triglyceride; type: in vivo, rat; conditions: iv, Lispro insulin 1 U/kg alone, 60 minutes after injection
[3] = IV 4.5 mg/kg, 2 minutes after injection
[4] = IV 4.5 mg/kg, 90 minutes after injection, assuming radioactivity is intact ISF402
[5] = after incubation with test peptide, 276 nm

T1 sequence (P01317 25-54 limits assumed): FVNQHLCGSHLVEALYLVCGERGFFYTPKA
T1 sequence (P01317 85-105 limits assumed): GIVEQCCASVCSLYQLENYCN
T2 sequence (P01308 25-54 limits assumed): as the sequence (P01317 25-54 limits assumed) above, with A30T counted along it
T2 sequence (P01308 90-110 limits assumed): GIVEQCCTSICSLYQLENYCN

concentration in serum (radioactivity) [1, 3]: 24800 ± 300 ng/mL
concentration in whole blood (radioactivity) [1, 3]: 12000 ± 1000 ng/mL
concentration in serum (radioactivity) [1, 4]: 8000 ± 2000 ng/mL
concentration in whole blood (radioactivity) [1, 4]: 3400 ± 1300 ng/mL
level at 7 h ([1]; rat, in vivo, IV 4.5 mg/kg, 7 hours, read-out: concentration detected at the conclusion of the time course): 2200 ± 1500 ng/mL
integrity of peptide in serum by reverse phase HPLC ([1]; serum collected 2 minutes after IV administration): intact
concentration in whole blood and sera ([2]; 30 minutes after oral dosing): Approximately 4 μg/mL
time to appearance in the circulation after dosing ([2]; oral 30 mg/kg): ≤ 30 min
concentration in whole blood (radioactivity) ([2]; oral 30 mg/kg, 7 hours): 44200 ± 2500 ng/mL
concentration in sera (radioactivity) ([2]; oral 30 mg/kg, after 90 minutes): 22100 ± 4900 ng/mL
concentration in whole blood (radioactivity) ([2]; oral 30 mg/kg, after 90 minutes, assuming labelled ISF402 still intact): 23700 ± 2100 ng/mL
level at 2 h ([2]; rat, in vivo, 30 mg/kg, 120 minutes after oral dosing, read-out: ISF402 levels in the circulation): > 20000 ng/mL
share of radioactivity in urine associated with intact ISF402 ([2]; urine collected over 12 hours after administration): 47% and 46%
radioactivity retrieved in urine, of the total radioactive ISF402 administered ([2]; urine, 12 hours): 0.97±0.13%
share of radioactivity in urine associated with free Valine ([2]; urine, 12 hours after administration): 32%
Compound: CC(C)[C@H](N)C(=O)N[C@@H](Cc1c[nH]cn1)C(=O)N[C@H](C(=O)N[C@@H](CC(=O)O)C(N)=O)[C@@H](C)O [14C-ISF402] (H-VHTD-NH2)
composition of radioactivity in urine ([2]; urine collected over 4 hours after dosing): mixture of degraded peptide and intact ISF402

Compound: O=C(O)CN(CCN(CC(=O)O)CC(=O)O)CC(=O)O [EDTA, ethylenediamine tetraacetic acid, reference compound]
CD signal at 275 nm of Zn-insulin upon addition (Zinc-insulin hexamers): increased

molar excess to insulin at maximum dispersion of insulin hexamers (Zinc-insulin hexamers): 10 fold
CD signal at 275 nm of Zn-insulin upon addition (Zinc-insulin hexamers): increased
elution volume of emerging peak corresponding to dimeric insulin (11.8 kDa) (hexameric insulin; [5]): 15.085 mL
elution volume of emerging peak corresponding to monomeric (5.8 kDa) insulin (hexameric insulin; [5]): 19.045 mL
Compound: Gly-His-Thr-Asp-NH2 (GHTD-NH2) [ISF401]
dissociation of hexameric insulin after incubation with test peptide (hexameric insulin; 1 mg/mL each of insulin and peptide, 1 hour room temperature, monitoring at 276 nm): cause the dissociation (disaggregation) of hexamers to dimeric and monomeric forms

Compound: Lispro insulin: altered form of human insulin that does not form stable hexamers; Lispro (Humalog), Eli Lilly [reference compound]
reduction in blood glucose (female Zucker fa/fa rats): 0.90 ± 0.77 mmol/L
